Measurements taken from article PMC12172326 (Journal of Biomedical Science, 2025).
Entries after “also recorded” stand apart in the source; their conditions may differ. Like-named read-outs stand apart in the source and are kept apart here. Marks after values point to notes of the source that are not given here.

Key:
chicken embryos = test: chicken embryo teratogenicity at E2.5; assay type: in vivo
Experimental: All studies with chicken embryos were performed in line with UK Home Office regulations and followed guidelines, standards and practices governed by the University of Aberdeen Ethics Committee (Scotland, UK). Fertilized chicken eggs were acquired from Henry Stewart & Co Ltd, Norfolk UK. […] Embryos were incubated at 37 °C to reach E2.5 (early developmental stages). Eggs were then opened and the embryonic membranes protecting the embryos were removed with forceps. Chicken embryos usually lie on one side, so the left side is directly against the yolk and the right side can be observed. […] Consequent to limited drug diffusion when applied to the right side of an embryo, the right side is deemed the ‘treatment’ side and the left (facing internally towards the yolk sac) is considered normal after treatment and thus can act as an internal control.

[1] = test system: mice subjected to controlled cortical impact (CCI) TBI; test: CCI TBI in mice: behavioral assessment; assay type: in vivo, mouse; details: for CCI-induced asymmetry, elevated body swing test: 1 week post injury; for home cage activity during the initial 11 h following CCI: dark phase; for CCI-induced reduction in brake time (gait): left hind limb, 1 week after injury
Experimental: For behavioral analyses, mice were assessed for spatial memory, gait function, motor coordination/balance function and home cage activity. The animals were subsequently evaluated for cellular changes using histology and immunohistochemistry after euthanasia.
In order to develop a controlled cortical impact (CCI) model of TBI, mice were anesthetized with 2.5% 2,2,2-tribromoethanol (Avertin, 400 mg/kg, I.P.) (Sigma, St. Louis, MO, USA) and placed in a stereotaxic frame (Kopf Instruments, Tujunga, CA, USA). A 4 mm craniotomy was performed under sterile procedures; the craniotomy point was selected midway between the lambda and bregma sutures, and laterally midway between the central suture and the temporalis muscle. The skull fragment was then carefully removed without disruption of the underlying dura on the right side of the head. Before injury, the tip of the impactor was angled and kept perpendicular to the exposed cortical surface. The mouse CCI instrument consisted of an electromagnetic impactor, Impact One (Leica Biosystems Inc., Buffalo Grove, IL, USA) that allows independent manipulation of injury severity by adjusting the contact duration and velocity of a metal impactor and the depth of cortical deformation. In these experiments, the contact velocity was set at 5.0 m/s, the dwell time was set at 0.2 s, and the deformation depth was set at 1.5 mm to produce a moderate TBI. The injury site was cleaned and dried by use of sterile cotton tipped applicators prior to suturing the wound. During surgery and recovery, the body temperature of all animals was maintained at 36–37 °C by using a heating pad.
Behavioral tests were conducted 1 week and 2 weeks post the CCI/sham procedure, to evaluate motor function and coordination differences between groups, and to compare with data performed 1 week prior to either procedure. All behavioral tests were conducted during the animals’ day light cycle; home cages were moved to behavioral rooms at least 1 h before testing.
Home cage activity monitoring was automatically and non-intrusively monitored using the digital individually ventilated cage system (DVC™; Tecniplast). Mice were individually housed, and their activity was tracked for 3 days before CCI/sham and 7 days after CCI/sham procedures.
Beam Walking Test (BWT) was used to evaluate CCI-induced impairments in motor coordination. Mice have an intrinsic preference for a darkened enclosed environment, as compared to an open bright field. Each mouse was placed in a darkened one-side-open cube box for 2 min for habituation and then was brought to the other (light) end of the beam, to start the trial. Two beams were used in this study with the following dimensions: 0.6 cm or 1.2 cm (width) × 91 cm (length). The time taken for each mouse to traverse the beam to reach the dark cube box and the ‘immobility time’ spent between the moment a mouse was initially placed on the beam and it started walking were recorded. Two trials were recorded for each animal with the 1.2 cm-width beam, and an additional two trials with the 0.6 cm-width were subsequently recorded. The mean times to traverse the beam and the immobility times were calculated, and a plot was generated to evaluate treatment effects; these times were then used for statistical analysis.
Gait analysis was employed to assess gait parameters following a specific protocol provided by the DigiGait manufacturer (Mouse Specifics, Inc., Framingham, MA, USA). The study tracked gait function at three time points: baseline, 1-week prior to CCI (PRE), and 1- and 2-weeks post-CCI. At the beginning of the trial, mice were brought to the test chamber for habituation to the new environment for 2 min, and then were given a 1-min run at 5 cm/sec before a 1-min break. […] Videos were assessed using DigiGait software to evaluate parameters that included stride duration, length, paw angle, and stance for all four limbs, following Mouse Specifics, Inc.'s procedures. […]

aqueous solubility = assay type: physicochemical
Experimental: This coarse drug suspension was transferred into Eppendorf microtubes containing approximately 0.4 g of 0.1–0.2 mm yttrium-stabilized zirconia-silica beads (Silibeads® Typ ZY Sigmund Lindner, Germany). The drug was vortexed twice, at 3000 rpm for 45 min, using a beads-milling cell disruptor (Disruptor Genie®, Scientific Industries, USA). The resulting nanosuspension was collected from each microtube and sieved through a 40 µm filter (Cell Strainer, Falcon # 35234) to remove the zirconia-silica beads. […] The stock drug concentration was 10.83 mg/ml (37.4 mM). The drug vehicle was essentially the same ratio of Tween 80 and water, processed in the identical manner as the drug preparation.

[2] = cited from earlier work
[3] = rat; cited from earlier work
[4] = human; cited from earlier work
[5] = high dose, initial 5 min on Day 2, 1 week after CCI, vs CCI + Vehicle
[6] = high dose, vs CCI + vehicle, p < 0.05
[7] = low dose, p < 0.05 vs CCI + Vehicle

For `Nc1cccc2c1C(=S)N(C1CCC(=O)NC1=O)C2=O` (stereo not shown) [3-MP, 3-monothiopomalidomide], the “developmental effect on chicken embryos” value (chicken embryos; E2.5, 2.65 to 132 ug, 24 h exposure, vs DMSO controls) was “not teratogenic; also recorded: no adverse developmental differences or damage”, the Normal embryos (chicken embryos; E2.5, dose 2.65 ug, N 2, 24 h) was 2 and the Normal embryos (chicken embryos; E2.5, dose 5.3 ug, N 3, 24 h) was 3. The Normal embryos (chicken embryos; E2.5, dose 20 ug, N 5, 24 h) was 5, the “Not counted embryos (died soon after application, methodology-related)” value (chicken embryos; E2.5, dose 26.4 ug, N 7) was 2^a and the Normal embryos (chicken embryos; E2.5, dose 26.4 ug, N 7, 24 h) was 5. For the same compound, the “Not counted embryos (died soon after application, methodology-related)” value (chicken embryos; E2.5, dose 52.8 ug, N 5) was 2^a, the Normal embryos (chicken embryos; E2.5, dose 52.8 ug, N 5, 24 h) was 3 and the Normal embryos (chicken embryos; E2.5, dose 66 ug, N 3, 24 h) was 3. For the same compound, the Normal embryos (chicken embryos; E2.5, dose 132 ug, N 3, 24 h) was 3, the “CCI-induced elevation of swing duration CV (gait)” value ([1]; both low and high doses, p < 0.05 vs CCI + Vehicle) was “significantly reduced” and the “CCI-induced asymmetry, elevated body swing test” value ([1]; high dose) was “trend towards normalization”. For the same compound, the “home cage activity during the initial 11 h following CCI” value ([1]; high dose, vs CCI + vehicle) was “did not reach statistical significance”, the “discrimination index (DI) of distance traveled” value ([1]; high dose, initial 5 min, vs CCI + Vehicle) was “substantially higher” and the “ambulatory time in the center zone, novelty-dependent exploration test” value [1, 5] was “significantly lower”. The “distance traveled, novelty-dependent exploration test” value [1, 5] was “significantly lower”, the “CCI-induced reduction in brake time (gait)” value ([1]; high dose, p < 0.05) was “significantly alleviated” and the “discrimination index (DI) of duration in the center” value [1, 6] was “significantly higher”. The “home cage activity on the day after CCI” value [1, 6] was “significantly higher”, the “lower home cage activity 24 h later (night + 1)” value ([1]; low dose and high dose, vs CCI + vehicle, p < 0.05) was “significantly mitigated” and the “CCI-induced asymmetry, elevated body swing test” value [1, 7] was “notably reduced”. The “home cage activity during the initial 11 h following CCI” value ([1]; low dose, vs CCI + vehicle, p < 0.05) was “notably higher”, the “CCI-induced reduction in brake time (gait)” value ([1]; low dose) was “trend towards improvement” and the “paw angle impairment (gait)” value [1, 7] was “mitigated”. For the same compound, the aqueous solubility (aqueous solubility) was “poorly aqueous soluble”, the oral bioavailability [2] was 38.5% and the “stability in ex vivo plasma and liver homogenate samples” value [3] was “relatively stable”. The “stability in ex vivo plasma and liver homogenate samples” value [4] was “relatively stable”.
